Assay results reported in patent US20230329994A1, “Surfactant Containing Formulation of Pseudo-Ceramides” (Symrise AG, priority 2020, published 2023).

Columns and labels:
[1] = Solubility: visual appearance of shampoo formulations; format: physicochemical; conditions: 0.1 in shampoo, surfactant approx. 14%; after preparation, after 3 days at 5° C. and 3 days at room temperature
Experimental: The solubility of the pseudoceramide CeramideBio in shampoo is evaluated in comparison to Ceramide 2 and Ceramide 3.
Shampoo Formulations: • Surfactant content: Approx. 14% 01
The shampoo formulations were prepared as follows: Phase A components were blended by gentle stirring; the process was stopped, when foaming starts.
The ceramides/pseudoceramide were predispersed in polyglyceryl-4-caprate and heated up to 90° C. The ceramides/pseudoceramide were melted and finely dispersed. Ucare Polymer JR-400 and water were added and the mixture was heated up to 90° C. again and stirred for 10 minutes.
Phases B, C and D were added to phase A one after the other by stirring. After that, the mixture was stirred slowly with a vane stirrer until the solution was homogeneous. At last Phase E was added by stirring with a vane stirrer. The pH value was adjusted to about 5.4 to 5.8.
The visual appearance of the shampoo formulations was evaluated after preparation, after 3 days storage at 5° C. and 3 day at room temperature.
The visual appearance of the shampoo formulations is depicted in FIG. 1. From left to the right: Sample CeramideBio (01_B), Ceramide 2 (02_B), Ceramide 3 (03_B).

[2] = Swelling test / hydrophobicity of hair fibers; conditions: for diameter variation of the hair after 180 s: 1× bleached tresses
Experimental: The swelling of the hair was measured with a conditioning formulation according to the present invention containing pseudoceramide CeramideBio (leave-on, 0.5 and 0.05%), a conditioning formulation containing Ceramide 2 (leave-on, 0.5% and 0.05%) and a Placebo (leave-on).
Principle: Through diameter measurements it is possible to determine the level of swelling of a hair fiber over time when in contact with water. The swelling test evaluates the action of materials in forming a hydrophobic film on hair surface in order to prevent humidity from penetrating the hair, which in turn provokes the hair diameter variation. The laser measures the variation in the fiber diameter as it absorbs water over a pre-determined time. According to the fiber condition or the film covering its surface, the level of swelling may change. The more damaged the hair, the more hydrophilic it is, since most of the hair damages take the lipids, ceramides and other hydrophobic substances away from the hair, and, consequently, more swelling is noticed. Parameter measured: variation in hair diameter (%).
Swelling Test: • 3 Caucasian hair tresses (2.5 g, 25 cm, 1× bleached) were cleaned with a sodium laureth sulfate solution (SLES) (10%) for 1 minute; • Test samples (see above) were applied to each tress (0.25 ml of sample; massaging for 1 minute); • Tresses were left for drying at controlled environment (22±2° C.; 50±5% RH) overnight; • 45 fibers from each treatment were collected randomly and fixed in plastic tabs one by one; • Swelling test was performed during 180 s; • Variation on fiber's diameter was calculated; • Comparisons among treatments were performed using one-way variance analysis (ANOVA), followed by Tukey's honestly significant difference (HSD) test, at a 95% confidence interval.

[3] = Hair shine/luster evaluation (SAMBA system)
Experimental: The hair luster was measured with a shampoo formulation according to the present invention containing pseudoceramide CeramideBio (shampoo, 1.0%), a shampoo formulation containing Ceramide 2 (shampoo, 1%) and a Placebo (shampoo).
Principle: Hair luster test analyzes the light reflection from the hair surface and other interactions of the incident light with the hair. The measurement is made by using SAMBA system. The results are expressed by luster: parameter calculated from values of shine, chroma and diffused light to express the observer perception of the gloss effect. The higher is the value, the best impression of the observer regarding gloss effect of the hair. […]

Compound | recrystallization in shampoo formulation (visual appearance) [1] | diameter variation of the hair after 180 s compared to conditioning formulation with Ceramide 2 ([2]; leave-on conditioning formulation) | diameter variation of the hair after 180 s ([2]; leave-on conditioning formulation, higher concentration (0.5%)) | diameter variation of the hair after 180 s ([2]; leave-on conditioning formulation, lower concentration (0.05%)) | hair fiber swelling / hydrophobicity versus non-treated hair, placebo and leave-on with 0.05% Ceramide 2 ([2]; leave-on formulation containing 0.05%) | effect on hair luster ([3]; shampoo formulation containing 1.0%) | luster of the hair compared to shampoo formulation with Ceramide 2 ([3]; shampoo, 1.0%, applied 5 times, 3× bleached tresses)
CCCCCCCCCCCCCCCCCC(=O)N[C@@H](CO)[C@H](O)CCCCCCCCCCCCCCC [Ceramide 2] | showed recrystallization | – | – | – | – | – | –
CCCCCCCCCCCCCCCCCCCCCCCC(=O)N[C@@H](CO)[C@H](O)C(O)CCCCCCCCCCCCCC (stereo partly drawn) [Ceramide 3] | showed recrystallization | – | – | – | – | – | –
CCCCCCCCCCCCCCCCOC(=O)[C@@H]1C[C@@H](O)CN1C(=O)CCCCCCCCCCCCCCC [CeramideBio, Cetylhydroxyproline palmitamide] | without recrystallization | smaller | 15.90% | 14.44% | statistically decreasing its swelling | able to increase hair luster | higher
